Reference: US9062124B2, “GIP-based mixed agonists for treatment of metabolic disorders and obesity” (priority 2008, dated 2015)
Where a SMILES comes first, the peptide text is derived from it. Where no end group is shown, it is not given here. [ ]: non-standard residue; d: D form. The star is where a group is joined. PEG 40 kDa = PEG (40 kDa) covalently attached to Cys; C14 acyl = 14 carbon fatty acyl group; Stearoyl = CCCCCCCCCCCCCCCCCC(=O)*; Aib = CC(C)(N)C(=O)O

What was measured:
GLP-1 receptor = target: T1, GLP-1 receptor (Homo sapiens, UniProt P43220); experiment: cAMP synthesis functional assay (firefly luciferase reporter in HEK293 cells), GLP-1 receptor; assay type: cell-based; details: for GLP-1 Receptor relative activity: relative to the standard (Std.) EC50 of the same run
T1 construct: expressed in transfected cells; host or cells: HEK293

[1] = Blood glucose levels of mice after peptide injection
[2] = system: glucagon receptor, GLP-1 receptor or GIP receptor; experiment: Agonist profile across receptors assigned from the cAMP reporter assay data; assay type: cell-based; details: assigned from the in vitro EC50 data of Tables 1-4
glucagon receptor = target: T2, glucagon receptor (Homo sapiens, UniProt P47871); experiment: cAMP synthesis functional assay (firefly luciferase reporter in HEK293 cells), glucagon receptor; assay type: cell-based; details: for Glucagon Receptor relative activity: relative to the standard (Std.) EC50 of the same run
T2 construct: expressed in transfected cells; host or cells: HEK293

GIP receptor = target: T3, GIP receptor (Homo sapiens, UniProt P48546); experiment: cAMP synthesis functional assay (firefly luciferase reporter in HEK293 cells), GIP receptor; assay type: cell-based; details: for GIP Receptor relative activity: relative to the standard (Std.) EC50 of the same run; for EC50: GIP Receptor EC50, cAMP luciferase reporter assay as in Example 16
T3 construct: expressed in transfected cells; host or cells: HEK293
T3 sequence (P48546 22-466): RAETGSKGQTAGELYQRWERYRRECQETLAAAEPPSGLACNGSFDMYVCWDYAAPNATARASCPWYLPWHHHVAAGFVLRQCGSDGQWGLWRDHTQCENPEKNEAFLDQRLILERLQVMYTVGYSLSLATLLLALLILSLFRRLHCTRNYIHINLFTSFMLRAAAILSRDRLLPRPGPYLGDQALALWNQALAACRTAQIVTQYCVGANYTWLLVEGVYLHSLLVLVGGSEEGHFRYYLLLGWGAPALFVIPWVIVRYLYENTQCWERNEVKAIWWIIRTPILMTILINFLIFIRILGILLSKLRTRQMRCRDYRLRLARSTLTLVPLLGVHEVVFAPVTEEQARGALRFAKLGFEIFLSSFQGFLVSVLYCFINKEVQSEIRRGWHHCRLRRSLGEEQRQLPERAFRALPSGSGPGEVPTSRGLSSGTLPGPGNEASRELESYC

[3] = Body weight of mice after peptide injection; details: DIO mice
[4] = Food intake of mice after peptide injection; assay type: in vivo; details: versus vehicle control
[5] = Example 29, mice, QD for 7 days, 25 nmol/kg
[6] = Table 5, relative to the native hormone
[7] = Example 34, DIO mice, higher dose (35 nmol/kg), Day 0 versus Day 7
[8] = Example 34, DIO mice, 10 or 35 nmol/kg

T2 sequence (P47871 26-477): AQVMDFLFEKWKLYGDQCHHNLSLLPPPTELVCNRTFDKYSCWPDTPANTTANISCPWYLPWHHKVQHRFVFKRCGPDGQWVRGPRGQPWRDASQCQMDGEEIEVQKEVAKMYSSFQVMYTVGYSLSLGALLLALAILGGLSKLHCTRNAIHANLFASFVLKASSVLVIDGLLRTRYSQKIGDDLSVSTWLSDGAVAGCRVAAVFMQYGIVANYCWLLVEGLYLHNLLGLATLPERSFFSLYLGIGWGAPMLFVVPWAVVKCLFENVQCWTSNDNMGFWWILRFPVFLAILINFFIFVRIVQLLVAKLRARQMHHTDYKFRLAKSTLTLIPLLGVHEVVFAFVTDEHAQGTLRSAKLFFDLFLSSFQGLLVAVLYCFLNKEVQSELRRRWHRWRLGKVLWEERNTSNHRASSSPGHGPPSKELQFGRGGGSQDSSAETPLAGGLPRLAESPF
T1 sequence (P43220 24-463, species assumed): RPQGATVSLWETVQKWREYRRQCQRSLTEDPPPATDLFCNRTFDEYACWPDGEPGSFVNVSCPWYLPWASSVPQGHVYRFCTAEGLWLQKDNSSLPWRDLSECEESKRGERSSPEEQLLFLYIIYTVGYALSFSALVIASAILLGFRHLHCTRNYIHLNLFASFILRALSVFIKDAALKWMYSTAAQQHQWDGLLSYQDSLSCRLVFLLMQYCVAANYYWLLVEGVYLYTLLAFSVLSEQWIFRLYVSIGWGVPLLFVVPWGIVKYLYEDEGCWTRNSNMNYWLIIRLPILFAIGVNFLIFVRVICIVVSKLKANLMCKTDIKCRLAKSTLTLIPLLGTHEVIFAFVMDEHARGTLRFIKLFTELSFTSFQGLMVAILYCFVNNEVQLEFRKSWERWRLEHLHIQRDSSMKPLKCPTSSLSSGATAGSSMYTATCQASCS

Compound: CCCCCCCCCCCCCC(=O)NCCCC[C@H](NC(=O)[C@H](CO)NC(=O)[C@@H]1CCCN1C(=O)[C@@H]1CCCN1C(=O)[C@@H]1CCCN1C(=O)[C@H](C)NC(=O)CNC(=O)[C@H](CO)NC(=O)[C@H](CO)NC(=O)[C@@H]1CCCN1C(=O)CNC(=O)CNC(=O)[C@H](C)NC(=O)[C@H](CC(C)C)NC(=O)[C@H](CC(C)C)NC(=O)[C@H](Cc1c[nH]c2ccccc12)NC(=O)[C@H](CC(N)=O)NC(=O)[C@@H](NC(=O)[C@H](Cc1ccccc1)NC(=O)[C@H](CCC(=O)O)NC(=O)C(C)(C)NC(=O)[C@H](C)NC(=O)[C@H](C)NC(=O)[C@H](CCC(N)=O)NC(=O)[C@H](CCCCN)NC(=O)[C@H](CC(=O)O)NC(=O)[C@H](CC(C)C)NC(=O)[C@H](Cc1ccc(O)cc1)NC(=O)[C@@H](NC(=O)[C@H](CO)NC(=O)[C@H](Cc1ccc(O)cc1)NC(=O)[C@H](CC(=O)O)NC(=O)[C@H](CO)NC(=O)[C@@H](NC(=O)[C@H](Cc1ccccc1)NC(=O)[C@@H](NC(=O)CNC(=O)[C@H](CCC(=O)O)NC(=O)C(C)(C)NC(=O)[C@@H](N)Cc1ccc(O)cc1)[C@@H](C)O)[C@@H](C)O)[C@@H](C)CC)C(C)C)C(N)=O [mt-260]
- EC50 (GLP-1 receptor; GLP-1 Receptor EC50, cAMP luciferase reporter assay as in Example 16): 6.8 pM
- GLP-1 Receptor relative activity (GLP-1 receptor): 257.35%
- decrease in blood glucose levels [1, 5]: ~50%
- receptor activity profile (glucagon / GLP-1 / GIP agonism) [2]: exhibited activity at the GIP, GLP-1, and glucagon receptors
- Glucagon Receptor relative activity (glucagon receptor): 6.64%
- GIP Receptor relative activity (GIP receptor): 583.33%

Compound: CCCCCCCCCCCCCCCCCC(=O)NCCCC[C@H](NC(=O)[C@H](CO)NC(=O)[C@@H]1CCCN1C(=O)[C@@H]1CCCN1C(=O)[C@@H]1CCCN1C(=O)[C@H](C)NC(=O)CNC(=O)[C@H](CO)NC(=O)[C@H](CO)NC(=O)[C@@H]1CCCN1C(=O)CNC(=O)CNC(=O)[C@H](C)NC(=O)[C@H](CC(C)C)NC(=O)[C@H](CC(C)C)NC(=O)[C@H](Cc1c[nH]c2ccccc12)NC(=O)[C@H](CC(N)=O)NC(=O)[C@@H](NC(=O)[C@H](Cc1ccccc1)NC(=O)[C@H](CCC(=O)O)NC(=O)C(C)(C)NC(=O)[C@H](C)NC(=O)[C@H](C)NC(=O)[C@H](CCC(N)=O)NC(=O)[C@H](CCCCN)NC(=O)[C@H](CC(=O)O)NC(=O)[C@H](CC(C)C)NC(=O)[C@H](Cc1ccc(O)cc1)NC(=O)[C@@H](NC(=O)[C@H](CO)NC(=O)[C@H](Cc1ccc(O)cc1)NC(=O)[C@H](CC(=O)O)NC(=O)[C@H](CO)NC(=O)[C@@H](NC(=O)[C@H](Cc1ccccc1)NC(=O)[C@@H](NC(=O)CNC(=O)[C@H](CCC(=O)O)NC(=O)C(C)(C)NC(=O)[C@@H](N)Cc1ccc(O)cc1)[C@@H](C)O)[C@@H](C)O)[C@@H](C)CC)C(C)C)C(N)=O [mt-262]
- decrease in blood glucose levels [1, 5]: ~50%
- receptor activity profile (glucagon / GLP-1 / GIP agonism) [2]: exhibited activity at the GIP, GLP-1, and glucagon receptors

Compound: CC[C@H](C)[C@H](NC(=O)[C@H](CO)NC(=O)[C@H](Cc1ccc(O)cc1)NC(=O)[C@H](CC(=O)O)NC(=O)[C@H](CO)NC(=O)[C@@H](NC(=O)[C@H](Cc1ccccc1)NC(=O)[C@@H](NC(=O)CNC(=O)[C@H](CCC(=O)O)NC(=O)C(C)(C)NC(=O)[C@@H](N)Cc1ccc(O)cc1)[C@@H](C)O)[C@@H](C)O)C(=O)N[C@@H](Cc1ccc(O)cc1)C(=O)N[C@@H](CC(C)C)C(=O)N[C@@H](CC(=O)O)C(=O)N[C@@H](CCCCN)C(=O)N[C@@H](CCC(N)=O)C(=O)N[C@@H](C)C(=O)N[C@@H](C)C(=O)NC(C)(C)C(=O)N[C@@H](CCC(=O)O)C(=O)N[C@@H](Cc1ccccc1)C(=O)N[C@H](C(=O)N[C@@H](CC(N)=O)C(=O)N[C@@H](Cc1c[nH]c2ccccc12)C(=O)N[C@@H](CC(C)C)C(=O)N[C@@H](CC(C)C)C(=O)N[C@@H](C)C(=O)NCC(=O)NCC(=O)N1CCC[C@H]1C(=O)N[C@@H](CO)C(=O)N[C@@H](CO)C(=O)NCC(=O)N[C@@H](C)C(=O)N1CCC[C@H]1C(=O)N1CCC[C@H]1C(=O)N1CCC[C@H]1C(=O)N[C@@H](CO)C(=O)N[C@@H](CCCCN)C(N)=O)C(C)C [mt-263]
- decrease in blood glucose levels ([1]; Example 30, 10 nmol/kg dose, Day 7 compared to Day 0): ~-80 mg/dL
- EC50 (GIP receptor): 3.1 pM

Compound: CCCCCCCCCCCCCCCCCC(=O)NCCCC[C@H](NC(=O)[C@H](CO)NC(=O)[C@@H]1CCCN1C(=O)[C@@H]1CCCN1C(=O)[C@@H]1CCCN1C(=O)[C@H](C)NC(=O)CNC(=O)[C@H](CO)NC(=O)[C@H](CO)NC(=O)[C@@H]1CCCN1C(=O)CNC(=O)CNC(=O)[C@H](C)NC(=O)[C@H](CC(C)C)NC(=O)[C@H](CC(C)C)NC(=O)[C@H](Cc1c[nH]c2ccccc12)NC(=O)[C@H](CC(N)=O)NC(=O)[C@@H](NC(=O)[C@H](Cc1ccccc1)NC(=O)[C@H](CCC(=O)O)NC(=O)C(C)(C)NC(=O)[C@H](C)NC(=O)[C@H](C)NC(=O)[C@H](CCC(N)=O)NC(=O)[C@H](CCCCN)NC(=O)[C@H](CC(=O)O)NC(=O)[C@H](CC(C)C)NC(=O)[C@H](Cc1ccc(O)cc1)NC(=O)[C@@H](NC(=O)[C@H](CO)NC(=O)[C@H](Cc1ccc(O)cc1)NC(=O)[C@H](CC(=O)O)NC(=O)[C@H](CO)NC(=O)[C@@H](NC(=O)[C@H](Cc1ccccc1)NC(=O)[C@@H](NC(=O)CNC(=O)[C@H](CCC(N)=O)NC(=O)C(C)(C)NC(=O)[C@@H](N)Cc1ccc(O)cc1)[C@@H](C)O)[C@@H](C)O)[C@@H](C)CC)C(C)C)C(N)=O [mt-279] (H-Y[Aib]QGTFTSDYSIYLDKQAA[Aib]EFVNWLLAGGPSSGAPPPSK(Stearoyl)-NH2; N-terminus assumed)
- % activity at the GLP-1 receptor (GLP-1 receptor; [6]): 420%
- GLP-1 Receptor relative activity (GLP-1 receptor): 419.57%
- receptor activity profile (glucagon / GLP-1 / GIP agonism) [2]: exhibited activity at the GIP, GLP-1, and glucagon receptors
- EC50 (glucagon receptor; Glucagon Receptor EC50, cAMP luciferase reporter assay as in Example 16): 6.9 pM
- % activity at the glucagon receptor (glucagon receptor; [6]): 733%
- Glucagon Receptor relative activity (glucagon receptor): 733.33%
- EC50 (GIP receptor): 4.5 pM
- % activity at the GIP receptor (GIP receptor; [6]): 527%
- GIP Receptor relative activity (GIP receptor): 526.67%
- body weight ([3]; Example 31, subcutaneous daily for 1 week, 10 nmol/kg): caused significant weight loss in the mice

Compound: mt-309: acylated version of mt-274: C-terminal Lys with C14 fatty acyl group, 40 kDa PEG on Cys at position 24 (Y[Aib]EGTFTSDYSIYLDKQAA[Aib]EFVC(PEG 40 kDa)WLLAGGPSSGAPPPSK(C14 acyl)-NH2)
- decrease in blood glucose levels, effect of dosing frequency ([1]; Example 37, DIO mice, QD 5, every 2nd day 10 or QW 30 nmol/kg, Day 6): a QW injection of mt-309 achieved the same decrease in blood glucose levels as a QD injection
- total change in body weight (%), effect of dosing frequency ([3]; Example 37, subcutaneous QD 5 nmol/kg, every 2nd day 10 nmol/kg or QW 30 nmol/kg, Day 6): approximately the same as the total change in body weight for mice injected QD

Compound: mt-311: non-acylated version of mt-298; PEG on Cys at position 24, C-terminal Lys (Y[Aib]EGTFTSDYSIYLDKQAA[Aib]EFVC(PEG 40 kDa)WLLAGGPSSGAPPPSK-NH2)
- blood glucose levels ([1]; Example 28, DIO mice, subcutaneous, 10 nmol/kg, Day 0 versus Day 7): decreased
- blood glucose levels [1, 7]: decreased upon administration of the higher dose
- total food intake [4, 8]: decreased, as compared to the mice injected with a vehicle control

Compound: mt-331: same amino acid sequence as mt-311, differing in the pegylation linker; no acyl group on Lys at position 40 (Y[Aib]EGTFTSDYSIYLDKQAA[Aib]EFVC(PEG 40 kDa)WLLAGGPSSGAPPPSK-NH2; also: PEG linker structure not shown)
- blood glucose levels [1, 7]: decreased upon administration of the higher dose
- total food intake [4, 8]: decreased, as compared to the mice injected with a vehicle control
- total food intake ([4]; Example 35, 3 or 10 nmol/kg): decreased in comparison to mice administered the vehicle control

Compound: mt-353: same sequence as mt-331 with a C14 fatty acyl group on the Lys at position 40 (Y[Aib]EGTFTSDYSIYLDKQAA[Aib]EFVC(PEG 40 kDa)WLLAGGPSSGAPPPSK(C14 acyl)-NH2)
- blood glucose levels ([1]; Example 35, C57Bl/6 mice on diabetogenic diet): additionally caused blood glucose levels to decrease
- total food intake ([4]; Example 35, 3 or 10 nmol/kg): decreased in comparison to mice administered the vehicle control
